Assay results: ChEMBL document CHEMBL5620344, “Discovery of novel 5-(2-hydroxyphenyl)-2-phthalide-3(3H)-pyrazolones as balanced multifunctional agents against Alzheimer's disease” (Eur J Med Chem, 2023)
Active and inactive are the calls of the source. No cut-off for these calls is given here.

Experiments:
Mus musculus [1] = assay: Antialzheimer activity against amyloid beta (1-42)-induced alzheimer's disease mouse model assessed as decrease in amyloid beta (1 to 42) level in hippocampus at 32 mg/kg and measured on day 6 by ELISA; type: functional, organism-based; settings: time 6.0 day
Mus musculus [2] = assay: Antialzheimer activity against amyloid beta (1-42)-induced alzheimer's disease mouse model assessed as decrease in cognitive impairment by measuring increase in time spent in target quadrant in spatial probe trial at 8 to 32 mg/kg and measured on day 6 by Morris water maze test; type: functional, organism-based; settings: dose 8-32 mg/kg, time 6.0 day
[3] = Antioxidant activity assessed as trolox equivalent of ORAC radical scavenging activity by ORAC-FL assay relative to trolox; type: functional
[4] = target: Amyloid-beta precursor protein (Homo sapiens) (UniProt P05067); assay: Inhibition of self-induced amyloid beta (1 to 42) (unknown origin) aggregation assessed as decrease in number of aggregates formed incubated for 24 hrs by transmission electron microscopy
Amyloid-beta precursor protein (Homo sapiens), sequence (P05067 whole entry): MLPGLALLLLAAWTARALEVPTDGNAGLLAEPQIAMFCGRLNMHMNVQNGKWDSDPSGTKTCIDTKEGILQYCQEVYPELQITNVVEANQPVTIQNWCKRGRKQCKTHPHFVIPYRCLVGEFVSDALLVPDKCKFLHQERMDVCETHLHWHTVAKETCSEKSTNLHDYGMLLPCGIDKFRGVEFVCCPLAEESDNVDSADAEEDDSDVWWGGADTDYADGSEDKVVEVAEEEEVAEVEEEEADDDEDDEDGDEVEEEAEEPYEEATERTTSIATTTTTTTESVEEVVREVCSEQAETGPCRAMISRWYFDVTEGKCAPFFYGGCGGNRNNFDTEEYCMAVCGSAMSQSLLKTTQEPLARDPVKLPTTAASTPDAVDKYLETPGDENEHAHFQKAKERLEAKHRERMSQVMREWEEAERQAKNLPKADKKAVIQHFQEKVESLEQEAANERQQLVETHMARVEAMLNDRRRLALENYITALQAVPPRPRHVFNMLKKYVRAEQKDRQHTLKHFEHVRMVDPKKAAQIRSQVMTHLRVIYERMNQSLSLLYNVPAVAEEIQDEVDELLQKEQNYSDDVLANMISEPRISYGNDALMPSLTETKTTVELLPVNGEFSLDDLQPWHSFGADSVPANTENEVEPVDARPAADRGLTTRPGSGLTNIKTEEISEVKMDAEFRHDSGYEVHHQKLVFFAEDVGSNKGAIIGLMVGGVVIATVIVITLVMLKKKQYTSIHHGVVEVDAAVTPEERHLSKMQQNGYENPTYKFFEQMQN

BV-2 [5] = assay: Cytotoxicity against mouse BV-2 cells assessed as effect on cell viability at 2.5 to 25 uM by MTT assay; type: toxicity, cell-based; settings: bv-2, 25 µM, dose 2.5-25 µM
[6] = Cmax in BALB/c mouse brain at 30 mg/kg, ig; type: ADME, organism-based; settings: po
[7] = target: Amyloid-beta precursor protein (Homo sapiens) (UniProt P05067); assay: Inhibition of Cu2+-induced amyloid beta (1 to 42) (unknown origin) aggregation assessed as fewer amyloid beta (1 to 42) fibrils formation incubated for 24 hrs by transmission electron microscopy
[8] = Metal chelating activity assessed as compound-Al3+ complex formation by measuring blue shift of maximum absorption peak at 37.5 uM in presence of AlCl3 by UV-Vis spectrometry
BV-2 [9] = assay: Anti-neuroinflammatory activity against LPS-stimulated mouse BV-2 cells assessed as inhibition of TNF-alpha release at 0.5 uM by ELISA; type: functional
[10] = target: Amyloid-beta precursor protein (Homo sapiens) (UniProt P05067); assay: Disaggregation of Cu2+-induced amyloid beta (1 to 42) (unknown origin) preformed fibrils assessed as degradation of crude fibrils incubated for 24 hrs by transmission electron microcopy
[11] = target: Amyloid-beta precursor protein (Homo sapiens) (UniProt P05067); assay: Disaggregation of Cu2+-induced amyloid beta (1 to 42) (unknown origin) preformed fibrils assessed as decrease in size of aggregates incubated for 24 hrs by transmission electron microcopy
Mus musculus [12] = assay: Antialzheimer activity against amyloid beta (1-42)-induced alzheimer's disease mouse model assessed as decrease in cognitive impairment by measuring decrease in escape latency time during training phase at 8 to 32 mg/kg and measured for 5 days by Morris water maze test; type: functional, organism-based; settings: dose 8-32 mg/kg, time 5.0 day
[13] = AUC (0 to t) in BALB/c mouse plasma at 30 mg/kg, ig; type: ADME, organism-based; settings: po
PC-12 [14] = assay: Neuroprotective activity against H2O2-induced cytotoxicity in rat PC12 cells assessed as cell viability at 10 uM by MTT assay (reference value: 54.9%); type: functional; settings: read-out: Activity
BV-2 [15] = assay: Anti-neuroinflammatory activity against LPS-stimulated mouse BV-2 cells assessed as inhibition of TNF-alpha release at 10 uM by ELISA; type: functional
[16] = Cmax in BALB/c mouse plasma at 30 mg/kg, ig; type: ADME, organism-based; settings: po
[17] = Permeability of the compound at 100 ug/ml by PAMPA-BBB assay; type: ADME; settings: dose 100 µg/ml, read-out: permeability
Mus musculus [18] = assay: Anti-oxidative stress against amyloid beta (1-42)-induced alzheimer's disease mouse model assessed as increase in SOD activity in hippocampus at 8 to 32 mg/kg and measured on day 6; type: functional, organism-based; settings: dose 8-32 mg/kg, time 6.0 day
Mus musculus [19] = assay: Anti-inflammatory activity against amyloid beta (1 to 42)-induced alzheimer's disease mouse model assessed as decrease in TNF-alpha content in hippocampus at 8 to 32 mg/kg and measured on day 6; type: functional, organism-based; settings: dose 8-32 mg/kg, time 6.0 day
[20] = target: T1, Amine oxidase [flavin-containing] B (Homo sapiens, UniProt P27338); assay: Inhibition of human recombinant MAO-B
T1 sequence (P27338 whole entry): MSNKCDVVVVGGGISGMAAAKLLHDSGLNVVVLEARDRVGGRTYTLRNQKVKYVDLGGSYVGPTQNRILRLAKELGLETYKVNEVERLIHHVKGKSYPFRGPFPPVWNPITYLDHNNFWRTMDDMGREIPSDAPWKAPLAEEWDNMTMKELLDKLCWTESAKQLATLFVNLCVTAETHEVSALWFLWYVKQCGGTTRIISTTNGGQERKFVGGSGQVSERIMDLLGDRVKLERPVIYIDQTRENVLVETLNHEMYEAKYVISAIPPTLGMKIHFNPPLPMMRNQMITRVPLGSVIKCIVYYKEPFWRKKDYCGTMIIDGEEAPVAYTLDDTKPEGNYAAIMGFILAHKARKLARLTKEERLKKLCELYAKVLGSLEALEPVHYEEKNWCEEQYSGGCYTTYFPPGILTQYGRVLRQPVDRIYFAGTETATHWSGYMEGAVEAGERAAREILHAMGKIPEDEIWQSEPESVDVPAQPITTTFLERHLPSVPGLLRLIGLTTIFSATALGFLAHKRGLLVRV

[21] = AUC (0 to t) in BALB/c mouse brain at 30 mg/kg, ig; type: ADME, organism-based; settings: in vivo, po
[22] = Tmax in BALB/c mouse plasma at 30 mg/kg, ig; type: ADME, organism-based; settings: po
[23] = target: Amyloid-beta precursor protein (Homo sapiens) (UniProt P05067); assay: Disaggregation of self-induced amyloid beta (1 to 42) (unknown origin) preformed fibrils at 25 uM by ThT fluorescence assay
BV-2 [24] = assay: Antioxidant activity against LPS-stimulated mouse BV-2 cells assessed as inhibition of ROS generation by measuring decrease in fluorescence intensity at 2.5 to 10 uM by DCFH-DA staining based fluorescence microscopy; type: functional, cell-based; settings: dose 2.5-10 µM
[25] = Antioxidant activity assessed as inhibition of Cu2+-induced ROS production by measuring decrease in fluorescence intensity in presence of Cu2+ and ascorbate by CCA-dye based fluorescence analysis; type: functional
[26] = Metal chelating activity assessed as compound-Fe3+ complex formation by measuring blue shift of maximum absorption peak at 37.5 uM in presence of FeCl3 by UV-Vis spectrometry
[27] = Tmax in BALB/c mouse brain at 30 mg/kg, ig; type: ADME, organism-based; settings: po
PC-12 [28] = assay: Neuroprotective activity against H2O2-induced cytotoxicity in rat PC12 cells assessed as cell viability at 2.5 uM by MTT assay (reference value: 54.9%); type: functional; settings: read-out: Activity
BV-2 [29] = assay: Anti-neuroinflammatory activity against LPS-stimulated mouse BV-2 cells assessed as inhibition of TNF-alpha release at 2.5 uM by ELISA; type: functional
Mus musculus [30] = assay: Anti-oxidative stress against amyloid beta (1-42)-induced alzheimer's disease mouse model assessed as decrease in MDA content in hippocampus at 8 to 32 mg/kg and measured on day 6; type: functional, organism-based; settings: dose 8-32 mg/kg, time 6.0 day
BV-2 [31] = assay: Anti-neuroinflammatory activity against LPS-stimulated mouse BV-2 cells assessed as inhibition of NO release at 10 uM incubated for 24 hrs by Griess reagent based assay; type: functional
[32] = target: Amyloid-beta precursor protein (Homo sapiens) (UniProt P05067); assay: Inhibition of self-induced amyloid beta (1 to 42) (unknown origin) aggregation at 25 uM by ThT fluorescence assay

inhibition [4]: Active
Cmax [6]: 923 ng/g
inhibition [7]: Active
Activity [8]: Active
Activity [10]: Active
Activity [11]: Active
AUC(0-t) [13]: 2940 ng·h/mL
Cmax [16]: 1540 ng/mL
Papp at 100 ug/ml [17]: 6.37 ×10⁻⁶ cm/s
IC50 [20]: 410 nM
AUCt [21]: 2032.5 ng·h/g
Tmax [22]: 30 min
Activity [23]: 81.9%
Activity [26]: Active
Tmax [27]: 60 min
inhibition [32]: 56%
Compound: CCCCCCCC1OC(=O)c2cc(N3N=C(c4cc(Cl)ccc4O)CC3=O)ccc21 (configuration not stated)
Activity (Mus musculus [1]): Active
Activity (Mus musculus [2]): Active
Ratio [3]: 1.16 equiv
Activity (BV-2 [5]): Non-Toxic
inhibition at 0.5 µM (BV-2 [9]): 22.7%
Activity (Mus musculus [12]): Active
viability at 10 µM (PC-12 [14]): 77.7%
inhibition at 10 µM (BV-2 [15]): 71.6%
Activity (Mus musculus [18]): Dose-Dependent Effect
Activity (Mus musculus [19]): Active
Activity (BV-2 [24]): Active
Activity [25]: Active
viability at 2.5 µM (PC-12 [28]): 73.4%
inhibition at 2.5 µM (BV-2 [29]): 51.6%
Activity (Mus musculus [30]): Dose-Dependent Effect
inhibition at 10 µM (BV-2 [31]): 76.3%
